Reference: patent publication US12479827B2, “Heteroaromatic carboxamide derivatives as plasma kallikrein inhibitors” (Boehringer Ingelheim International GmbH, priority 2020, dated 2025)

How the values were obtained:
Human PKK = target: T1, Human PKK (Homo sapiens, UniProt P03952); test: Inhibition of PKK using an endpoint assay (human PKK); format: biochemical; details: fluorogenic substrate H-Pro-Phe-Arg-AMC, 1 h room temperature, method names human or rat PKK, table does not say which
T1 construct: purchased Enzyme Research Laboratories
T1 sequence (P03952 20-390 limits assumed): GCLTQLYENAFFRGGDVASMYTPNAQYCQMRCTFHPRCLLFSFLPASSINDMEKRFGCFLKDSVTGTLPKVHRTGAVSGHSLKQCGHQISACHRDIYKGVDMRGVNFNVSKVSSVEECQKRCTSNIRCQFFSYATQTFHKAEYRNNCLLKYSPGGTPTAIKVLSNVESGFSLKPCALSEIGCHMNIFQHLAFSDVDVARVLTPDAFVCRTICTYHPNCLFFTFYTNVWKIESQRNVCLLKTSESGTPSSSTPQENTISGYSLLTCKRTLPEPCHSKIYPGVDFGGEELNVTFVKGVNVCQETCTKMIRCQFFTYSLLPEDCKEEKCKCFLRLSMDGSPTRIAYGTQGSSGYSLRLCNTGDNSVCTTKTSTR
T1 sequence (P03952 391-638 limits assumed): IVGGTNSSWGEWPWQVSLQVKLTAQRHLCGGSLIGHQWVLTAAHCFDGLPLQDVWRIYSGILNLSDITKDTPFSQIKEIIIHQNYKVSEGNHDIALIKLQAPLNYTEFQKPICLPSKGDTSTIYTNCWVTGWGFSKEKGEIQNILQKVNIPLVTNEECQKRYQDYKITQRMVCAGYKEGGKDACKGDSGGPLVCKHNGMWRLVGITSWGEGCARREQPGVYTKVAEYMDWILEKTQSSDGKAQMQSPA
How it was run: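 Endpoint fluorescence (ex 355 nm, em 460 nm) after stopping with 1 μM final PPACK II. Buffer: Tris 100 mM pH 7.8, NaCl 150 mM, BSA 0.1%, Tween20 0.05%, with 1% DMSO present; enzyme is human plasma kallikrein.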

[1] = target: T2, PKK in kaolin activated human platelet poor plasma (Homo sapiens, UniProt P03952); test: Inhibition of PKK in kaolin activated human PPP; format: biochemical; details: 25-750 μg/mL kaolin, global fit, text b200 calls the values IC90;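 note: readout is the rate of fluorogenic substrate cleavage in rfu per min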
T2 construct: Platelet poor plasma (PPP) obtained from human wholeblood; from tissue
T2 sequence (P03952 391-638 limits assumed): as above
T2 sequence (P03952 20-390 limits assumed): as the sequence (P03952 20-390 limits assumed) above
Experimental: Platelet poor plasma (PPP) obtained from human wholeblood, anticoagulated with Na-Citrate, is incubated with various concentrations of the test compound together with either 25, 75, 250, or 750 μg/mL kaolin in assay buffer for 20 min at 37° C. such that for each kaolin dose used a concentration response is obtained for the test compound.

Cn1cnc2c1CC[C@H]2NC(=O)c1cn(Cc2ccc(N3CC4(CC4)C3)nc2)nn1 [Example 26, 1-[(6-{5-Azaspiro[2.3]hexan-5-yl}pyridin-3-yl)-methyl]-N-[(4R)-1-methyl-1H,4H,5H,6H-cyclopenta[d]imidazol-4-yl]-1H-1,2,3-triazole-4-carboxamide]
IC50 (Human PKK): 0.0049 µM
IC50 [1]: 0.343 µM

Cn1cnc2c1CC[C@H]2NC(=O)c1cn(Cc2ccc(N3CC4C(C3)C4(F)F)nc2Br)cn1 (stereo partly drawn) [Example 28, 1-[(2-Bromo-6-{6,6-difluoro-3-azabicyclo-[3.1.0]hexan-3-yl}pyridin-3-yl)methyl]-N-[(4R)-1-methyl-1H,4H,5H,6H-cyclopenta[d]imidazol-4-yl]-1H-imidazole-4-carboxamide]
IC50 (Human PKK): 0.0006 µM
IC50 [1]: 0.184 µM

Cn1cnc2c1CC[C@H]2NC(=O)c1cn(Cc2cnc(N3CC4CC4C3)nc2C(F)F)cn1 (stereo partly drawn) [Example 29, 1-[(2-{3-Azabicyclo[3.1.0]hexan-3-yl}-4-(difluoromethyl)-pyrimidin-5-yl)methyl]-N-[(4R)-1-methyl-1H,4H,5H,6H-cyclopenta[d]imidazol-4-yl]-1H-imidazole-4-carboxamide]
IC50 (Human PKK): 0.0026 µM
IC50 [1]: 0.336 µM

Cn1cnc2c1CC[C@H]2NC(=O)c1cn(Cc2ccc(N3CC4CC4C3)nc2C(F)F)nn1 (stereo partly drawn) [Example 30, 1-[(6-{3-Azabicyclo[3.1.0]hexan-3-yl}-2-(difluoromethyl)-pyridin-3-yl)methyl]-N-[(4R)-1-methyl-1H,4H,5H,6H-cyclo-penta[d]imidazol-4-yl]-1H-1,2,3-triazole-4-carboxamide]
IC50 (Human PKK): 0.0009 µM
IC50 [1]: 0.334 µM

CCCc1nc(N2CC3CC3C2)ccc1Cn1cnc(C(=O)N[C@@H]2CCc3c2ncn3C)c1 (stereo partly drawn) [Example 31, 1-[(6-{3-Azabicyclo[3.1.0]hexan-3-yl}-2-propylpyridin-3-yl)methyl]-N-[(4R)-1-methyl-1H,4H,5H,6H-cyclopenta[d]imidazol-4-yl]-1H-imidazole-4-carboxamide]
IC50 (Human PKK): 0.0053 µM
IC50 [1]: 0.973 µM

Cn1cnc2c1CC[C@H]2NC(=O)c1cn(Cc2ccc(N3CC4CC4C3)nc2Cl)nn1 (stereo partly drawn) [Example 32, 1-[(6-{3-Azabicyclo[3.1.0]hexan-3-yl}-2-chloropyridin-3-yl)methyl]-N-[(4R)-1-methyl-1H,4H,5H,6H-cyclopenta-[d]imidazol-4-yl]-1H-1,2,3-triazole-4-carboxamide]
IC50 (Human PKK): 0.0011 µM
IC50 [1]: 0.548 µM

Cn1cnc2c1CC[C@H]2NC(=O)c1cn(Cc2ccc(N3CC4C(C3)C4(F)F)nc2)nn1 (stereo partly drawn) [Example 33, 1-[(6-{6,6-Difluoro-3-azabicyclo[3.1.0]hexan-3-yl}pyridin-3-yl)methyl]-N-[(4R)-1-methyl-1H,4H,5H,6H-cyclo-penta[d]imidazol-4-yl]-1H-1,2,3-triazole-4-carboxamide]
IC50 (Human PKK): 0.0025 µM
IC50 [1]: 0.265 µM

Cn1cnc2c1CC[C@H]2NC(=O)c1cn(Cc2ccc(N3CC4CC4C3)nc2Br)nn1 (stereo partly drawn) [Example 34, 1-[(6-{3-Azabicyclo[3.1.0]hexan-3-yl}-2-bromopyridin-3-yl)methyl]-N-[(4R)-1-methyl-1H,4H,5H,6H-cyclopenta-[d]imidazol-4-yl]-1H-1,2,3-triazole-4-carboxamide]
IC50 (Human PKK): 0.0009 µM
IC50 [1]: 1.19 µM

Cn1cnc2c1CC[C@H]2NC(=O)c1cnn(Cc2ccc(N3CC4CC4C3)c(C#N)n2)c1 (stereo partly drawn) [Example 35, 1-[(5-{3-Azabicyclo[3.1.0]hexan-3-yl}-6-cyanopyridin-2-yl)methyl]-N-[(4R)-1-methyl-1H,4H,5H,6H-cyclopenta[d]imidazol-4-yl]-1H-pyrazole-4-carboxamide]
IC50 (Human PKK): 0.0022 µM
IC50 [1]: 0.259 µM

CCc1nc(N2CC3(CC3)C2)ccc1Cn1cnc(C(=O)N[C@@H]2CCc3c2ncn3C)c1 [Example 37, 1-[(6-{5-Azaspiro[2.3]hexan-5-yl}-2-ethylpyridin-3-yl)methyl]-N-[(4R)-1-methyl-1H,4H,5H,6H-cyclopenta[d]imidazol-4-yl]-1H-imidazole-4-carboxamide]
IC50 (Human PKK): 0.0009 µM
IC50 [1]: 0.125 µM

Cn1cnc2c1CC[C@H]2NC(=O)c1cn(Cc2ccc(N3CC4CC4C3)nc2Br)cn1 (stereo partly drawn) [Example 39, 1-[(6-{3-Azabicyclo[3.1.0]hexan-3-yl}-2-bromopyridin-3-yl)methyl]-N-[(4R)-1-methyl-1H,4H,5H,6H-cyclopenta[d]imidazol-4-yl]-1H-imidazole-4-carboxamide]
IC50 (Human PKK): 0.0007 µM
IC50 [1]: 0.38 µM

Cn1cnc2c1CC[C@H]2NC(=O)c1cnn(Cc2ccc(N3CC4CC4C3)nc2Br)c1 (stereo partly drawn) [Example 40, 1-[(6-{3-Azabicyclo[3.1.0]hexan-3-yl}-2-bromopyridin-3-yl)methyl]-N-[(4R)-1-methyl-1H,4H,5H,6H-cyclopenta[d]imidazol-4-yl]-1H-pyrazole-4-carboxamide]
IC50 (Human PKK): 0.0012 µM
IC50 [1]: 0.543 µM

Cn1cnc2c1CC[C@H]2NC(=O)c1cnn(Cc2ccc(N3CC4C(C3)C4(F)F)cn2)c1 (stereo partly drawn) [Example 41, 1-[(5-{6,6-Difluoro-3-azabicyclo[3.1.0]hexan-3-yl}pyridin-2-yl)methyl]-N-[(4R)-1-methyl-1H,4H,5H,6H-cyclopenta[d]imidazol-4-yl]-1H-pyrazole-4-carboxamide]
IC50 (Human PKK): 0.0034 µM
IC50 [1]: 0.488 µM

Cn1cnc2c1CC[C@H]2NC(=O)c1cnn(Cc2ccc(N3CC4CC4C3)nc2C2(C#N)CC2)c1 (stereo partly drawn) [Example 42, 1-[(6-{3-Azabicyclo[3.1.0]hexan-3-yl}-2-(1-cyanocyclopro-pyl)-pyridin-3-yl)methyl]-N-[(4R)-1-methyl-1H,4H,5H,6H-cyclopenta[d]imidazol-4-yl]-1H-pyrazole-4-carboxamide]
IC50 (Human PKK): 0.0006 µM
IC50 [1]: 0.195 µM

Cn1cnc2c1CC[C@H]2NC(=O)c1cnn(Cc2ccc(N3CC4CC4C3)nc2C(F)F)c1 (stereo partly drawn) [Example 43, 1-[(6-{3-Azabicyclo[3.1.0]hexan-3-yl}-2-(difluoromethyl)-pyridin-3-yl)methyl]-N-[(4R)-1-methyl-1H,4H,5H,6H-cyclopenta[d]imidazol-4-yl]-1H-pyrazole-4-carboxamide]
IC50 (Human PKK): 0.0009 µM
IC50 [1]: 0.308 µM

Cn1cnc2c1CC[C@H]2NC(=O)c1cnn(Cc2ccc(N3CC4C(C3)C4(F)F)nc2Cl)c1 (stereo partly drawn) [Example 44, 1-[(2-Chloro-6-{6,6-difluoro-3-azabicyclo-[3.1.0]hexan-3-yl}pyridin-3-yl)methyl]-N-[(4R)-1-methyl-1H,4H,5H,6H-cyclopenta[d]imidazol-4-yl]-1H-pyrazole-4-carboxamide]
IC50 (Human PKK): 0.0018 µM
IC50 [1]: 0.444 µM

Cn1cnc2c1CC[C@H]2NC(=O)c1cn(Cc2ccc(N3CC4C(C3)C4(F)F)nc2C(F)F)cn1 (stereo partly drawn) [Example 45, 1-[(6-{6,6-Difluoro-3-azabicyclo[3.1.0]hexan-3-yl}-2-(difluoromethyl)pyridin-3-yl)methyl]-N-[(4R)-1-methyl-1H,4H,5H,6H-cyclopenta-[d]imidazol-4-yl]-1H-imidazole-4-carboxamide]
IC50 (Human PKK): 0.0007 µM
IC50 [1]: 0.151 µM

Cn1cnc2c1CC[C@H]2NC(=O)c1cnn(Cc2ccc(N3CC4C(C3)C4(F)F)nc2C(F)F)c1 (stereo partly drawn) [Example 46, 1-[(6-{6,6-Difluoro-3-azabicyclo[3.1.0]hexan-3-yl}-2-(difluoromethyl)pyridin-3-yl)methyl]-N-[(4R)-1-methyl-1H,4H,5H,6H-cyclopenta-[d]imidazol-4-yl]-1H-pyrazole-4-carboxamide]
IC50 (Human PKK): 0.001 µM
IC50 [1]: 0.162 µM
